Test system: Macrophomina phaseolina
Experiment: Strawberry pot trial in the greenhouse, soil drench at planting, efficacy against Macrophomina phaseolina
Type: in vivo
Settings: 250 g AI/ha drench at planting, strawberry 'Sweet Ann'; for Pest severity (IS 0-5; 0 = no damage, 5 = severe damage): 6 replications
Method: A strawberry pot trial was carried out in the greenhouse Vero Beach, United States to evaluate the efficacy of different compounds against Macrophomina phaseolina.
The plants were planted in 4 L pots with Vero Beach Mix (50% potting media and 50% pasteurized sand). The plants were bare root strawberry of the variety ‘Sweet Ann’. The strawberry plants were partially planted, then were inoculated with 2 grams of the infested millet. The inoculum was grown on twice sterilized millet for 1-2 weeks. The isolate used was originally isolated from strawberry. After the inoculation the roots were completely covered. At the day of planting each plant was drench applied with 100 mL of compound solution. The application dose was calculated based on a plant spacing of 30.5 cm by 45.7 cm. The plants were grown in a greenhouse that averaged 32° C. in the day and 21° C. at night. Plants were watered daily. The disease severity was evaluated after 44 and 65 days after application using a […] index scale (5=severe damage, 0=no damage).

[1] = 65 days after application (second assessment)

`O=C(NCCc1ncc(C(F)(F)F)cc1Cl)c1ccccc1C(F)(F)F` [Fluopyram] was tested, and the “% efficacy based on disease incidence” value (44 days after planting) was 44.33%, the “Pest severity (IS 0-5; 0 = no damage, 5 = severe damage)” value (44 days after planting) was 1.67,A and the “% efficacy based on disease incidence” value [1] was 1.60%. The “Pest severity (IS 0-5; 0 = no damage, 5 = severe damage)” value [1] was 4.92,A.

Reference: patent publication US20230042612A1, “METHODS OF CONTROLLING OR PREVENTING INFESTATION OF PLANTS BY A PHYTOPATHOGENIC MICROORGANISM OF THE GENUS MACROPHOMINA SPP” (SYNGENTA CROP PROTECTION AG, priority 2019, published 2023)
